According to US20100069443A1, “COMPOUND WITH BENZAMIDE SKELETON HAVING CYCLOOXYGENASE-1 (COX-1)-SELECTIVE INHIBITORY ACTIVITY” (National University Corporation Okayama University, priority 2006, published 2010):
Like-named read-outs stand apart in the source and are kept apart here.

Legend:
[1] = test system: gastric ulcer; assay: Gastric ulcer formation; format: in vivo; conditions: 30 mg/kg orally, mice, 5 hours later
Protocol: Compound 1 was orally administered in amounts of 30 mg/kg to groups each consisting of 3 to 5 mice, mice were sacrificed with the use of ether 5 hours later, and the stomachs were extracted. The extracted stomachs were opened, each entire stomach was photographed using a stereoscopic microscope, and the lengths of the gastric ulcers were determined.

[2] = target: T1, cyclooxygenase 2 (COX-2) (Ovis aries, UniProt P79208); assay: Cayman Cyclooxygenase Inhibitor Screening Assay Kit (760111), COX-2; format: biochemical; conditions: for inhibition at 100 µM: read-out: Inhibitory activity of 100 μM compound (%) COX-2
T1 construct: purchased Cayman 760111
T1 sequence (P79208 17-603): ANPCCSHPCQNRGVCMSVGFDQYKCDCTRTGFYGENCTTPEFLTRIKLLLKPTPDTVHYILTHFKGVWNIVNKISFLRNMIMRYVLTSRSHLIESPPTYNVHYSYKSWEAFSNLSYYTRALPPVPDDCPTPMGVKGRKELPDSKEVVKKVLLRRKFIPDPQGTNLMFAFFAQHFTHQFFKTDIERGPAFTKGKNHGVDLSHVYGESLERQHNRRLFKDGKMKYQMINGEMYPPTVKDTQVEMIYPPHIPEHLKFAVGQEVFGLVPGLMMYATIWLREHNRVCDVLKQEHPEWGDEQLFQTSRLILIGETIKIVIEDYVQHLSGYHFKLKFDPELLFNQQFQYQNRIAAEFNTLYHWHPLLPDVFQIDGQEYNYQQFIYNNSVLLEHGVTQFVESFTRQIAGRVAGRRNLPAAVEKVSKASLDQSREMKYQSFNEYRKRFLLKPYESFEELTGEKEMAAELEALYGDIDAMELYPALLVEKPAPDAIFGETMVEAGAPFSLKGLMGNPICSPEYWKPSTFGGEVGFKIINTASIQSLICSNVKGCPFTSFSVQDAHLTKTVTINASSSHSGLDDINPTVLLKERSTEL

[3] = test system: acetic acid-induced writhing responses; assay: Acetic acid writhing test (analgesic testing); format: in vivo; conditions: mice; for Number of writhing responses: counted for 10 minutes, average; for Analgesic effect, suppression of the number of writhing responses (in words): oral administration
Protocol: Analgesic testing was carried out via common mice-based acetic acid writhing test. Compounds were administered orally in amounts of 30 mg/kg to groups each consisting of 10 or 11 mice, and a substance that applies pain stimuli, i.e., a 0.7% acetic acid solution, was intraperitoneally administered 30 minutes thereafter (0.1 ml/10 g). The counting of mice-specific writhing responses was initiated 10 minutes after the administration of the acetic acid solution, and the counting was continued for 10 minutes. This test utilizes the fact that a distinct symptom of agony, that is a writhing response, occurs upon administration of a stimulatory substance, such as an acetic acid solution, to a mouse. […] When compound 1 was administered in amounts of 30 mg/kg, however, the number of writhing responses was 5 on average. When compound 1 was administered in amounts of 10 mg/kg, the number of writhing responses was 10 on average. When compound 14 was administered in amounts of 30 mg/kg, the number of writhing responses was 6 on average.

[4] = target: T2, cyclooxygenase-1 (COX-1) (Ovis aries, UniProt P05979); assay: Cayman Cyclooxygenase Inhibitor Screening Assay Kit (760111), COX-1; format: biochemical; conditions: for inhibition at 100 µM: read-out: Inhibitory activity of 100 μM compound (%) COX-1
T2 construct: purchased Cayman 760111
T2 sequence (P05979 25-600): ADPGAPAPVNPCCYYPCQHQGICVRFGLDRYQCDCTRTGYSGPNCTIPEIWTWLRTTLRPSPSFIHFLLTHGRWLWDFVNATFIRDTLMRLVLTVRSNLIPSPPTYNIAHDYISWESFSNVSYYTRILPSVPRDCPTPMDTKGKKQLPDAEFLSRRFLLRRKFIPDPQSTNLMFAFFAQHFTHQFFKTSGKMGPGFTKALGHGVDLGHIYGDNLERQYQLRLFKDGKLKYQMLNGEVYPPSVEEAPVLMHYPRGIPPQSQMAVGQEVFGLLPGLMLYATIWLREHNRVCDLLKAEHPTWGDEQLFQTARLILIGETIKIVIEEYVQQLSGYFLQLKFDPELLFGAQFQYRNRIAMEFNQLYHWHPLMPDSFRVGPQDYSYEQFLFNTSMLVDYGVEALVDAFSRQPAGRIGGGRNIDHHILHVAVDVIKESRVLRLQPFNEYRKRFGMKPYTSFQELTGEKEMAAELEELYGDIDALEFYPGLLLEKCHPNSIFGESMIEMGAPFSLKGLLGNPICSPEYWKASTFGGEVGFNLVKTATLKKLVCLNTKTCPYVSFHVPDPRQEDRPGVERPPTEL

[5] = test system: carrageenin-induced edema in footpads of hind paws; assay: Carrageenin edema test (antiinflammatory testing); format: in vivo, rat; conditions: 30 mg/kg orally; 3 hours after administration of 1% carrageenin
Protocol: Antiinflammatory testing was carried out via a rat-based carrageenin edema test. Compounds were orally administered in amounts of 30 mg/kg to groups each consisting of 5 to 8 […], and an edema-inducing substance (a 1% carrageenin solution) was administered hypodermically to footpads of hind paws 1 hour later (0.1 ml/mouse). Edema thickness in the footpads of hind paws was measured 1, 2, and 3 hours thereafter.

[6] = 10 mg/kg orally, 0.7% acetic acid i.p.
[7] = 30 mg/kg orally, 0.7% acetic acid i.p. 30 minutes later

SMILES	Gastric ulcer formation (in words) [1]	Total length of gastric ulcer (mm) [1] [mm]	IC50 [2] [µM]	inhibition at 100 µM [2] [%]	Death of mice (1 g/kg intraperitoneally, 3 mice, observed for 10 days)	Number of writhing responses [3, 6]	Number of writhing responses [3, 7]	Analgesic effect, suppression of the number of writhing responses (in words) [3]	IC50 [4] [µM]	inhibition at 100 µM [4] [%]	Inhibitory activity against edema (%) [5] [%]	Death of mice (300 mg/kg intraperitoneally, 5 mice, observed for 14 days)
Nc1ccc(NC(=O)c2ccc(C(F)(F)F)cc2)nc1 [Compound 1]	not observed	0.09	> 100	24	did not die	10	5	significantly suppresses	1	98	31	–
Nc1ccc(C(=O)Nc2ccc(C(F)(F)F)cn2)cc1 [Compound 14]	not observed	0.01	> 100	15	–	–	6	significantly suppresses	30	65	–	did not die
CC(=O)Oc1ccccc1C(=O)O [Aspirin, aspirin, reference compound]	significant gastric ulcers	1.61	–	–	–	17	15	–	–	–	16	–
